“Also recorded” adds a separate entry of the source. No end group written: not given here.
Legend:
HFF-1 = experiment: Cytotoxicity MTT assay, HFF-1; type: cell-based; details: HFF-1 non-cancerous human cells; 0.1 µM to 100 µM, duplicate, 5 h, 37°C; MTT 1 h, absorbance 600 nm; positive control Taxol
Method: (§1) The cytotoxicity of the peptides on breast cancer cells (MDA-MB-231) and non-cancerous human cells (HFF-1) was measured using a standard MTT (3-(4,5-dimethylthiazol-2-yl)-2,5-diphenyltetrazolium bromide, Sigma-Aldrich) assay. Cells were seeded in a 96-well flat-bottomed plate at a concentration of 5.0×10^4 cells/cm^2 in DMEM in 10% FBS, or DMEM in 15% FBS, and incubated at 37°C in an atmosphere of 5% CO2 in air. After 24 h, peptides were added in duplicate at the concentrations ranging from 0.1 µM to 100 µM to make up a final volume of 100 µL in each well and then incubated for 5 h. MTT solution (10 µL) in PBS (5 mg/mL) was added to each well and maintained for 1 h. Media was removed, and formazan crystals were resuspended in 100 µL of DMSO. Absorbance was then read at 600 nm. Taxol was used as the positive control.

[1] = system: bovine pancreatic trypsin; experiment: Trypsin inhibitory assay; type: biochemical; details: substrate L-BAPNA, 50 mM Tris/20 mM CaCl2 pH 8.2, 10 min, room temperature; four concentrations, initial 750 µM or 1.5 mM with 10-fold dilutions; triplicate; absorbance 410 nm; positive control MCoTI-II
Method: A stock solution of bovine pancreatic trypsin at 4.5 mg/mL in 1 mM HCl was prepared and stored on ice. Firstly, the trypsin stock was diluted to 0.45 mg/mL in 50 mM Tris/20 mM CaCl2 (pH 8.2) buffer. Next, the substrate was prepared by dissolving 0.435 mg/mL L-BAPNA (Nα-benzoyl-L-arginine 4-nitroanilide hydrochloride, Sigma-Aldrich) in 1% DMSO/99% 50 mM Tris/20 mM CaCl2 buffer (pH 8.2). Four different peptide concentrations were tested starting from initial concentrations of 750 µM or 1.5 mM with 10-fold dilutions. The reaction mixture was prepared by dispensing 15 µL of 50 mM Tris/20 mM CaCl2 (pH 8.2) buffer, 5 µL of 0.45 mg/mL trypsin and followed by 5 µL of the tested peptide into each well of a 96-well plate in triplicate. A control without the tested peptide was used to measure 100% trypsin activity. Subsequently, 125 µL of 0.435 mg/mL substrate was added to the plate and incubated for 10 min at room temperature. The reaction was stopped by adding 25 µL of 30% acetic acid. Absorbance was measured at 410 nm using a Powerwave XS plate reader (Bio-Tek). Trypsin inhibition was calculated from the absorbance in the presence of the tested peptide as a percent of absorbance of the uninhibited trypsin [39]. MCoTI-II was used as the positive control.

MDA-MB-231 = experiment: Cytotoxicity MTT assay, MDA-MB-231; type: cell-based; details: MDA-MB-231 human breast cancer cells; 0.1 µM to 100 µM, duplicate, 5 h, 37°C; MTT 1 h, absorbance 600 nm; positive control Taxol
Method: as §1

[2] = system: Plasmodium falciparum (FCR-3 strain); experiment: Antimalarial assay; type: cell-based; details: FCR-3 strain in human RBCs (type A), 5% hematocrit, 0.3% parasitemia, GIT medium, 37°C, 72 h; various concentrations, duplicate; Giemsa smears, microscopy; positive control artemisinin
Method: Plasmodium falciparum (FCR-3 strain) was maintained in vitro at 37°C in GIT medium containing human red blood cells (RBCs, type A) at 5% hematocrit in 24-well plates which were put in a CO2 incubator (5% CO2, 5% O2 and 90% N2) at 37°C [41]. Peptides were added in duplicate in distilled water or 0.25 M phosphoric acid and prepared in various concentrations. 10 µL of this solution was added to individual cells of the plates. Erythrocytes with 0.3% parasitemia were added to the cells of the above plates containing 990 µL of culture medium. The plates were incubated at 37°C for 72 h in the CO2 incubator. To test the antimalarial activity of peptides, thin smears were prepared from each culture and stained with Giemsa. Erythrocytes were examined under microscopy. Artemisinin was used as the positive control. Drug-free control cultures were assayed simultaneously, [43].

Row | Sequence | cytotoxic activity (HFF-1) | trypsin inhibitory activity [1] | cytotoxic activity (MDA-MB-231) | antimalarial activity [2]
1 | GCAGKACNLLGLTCDAGCFCRPDGVGIVAGVCV (disulfide (positions not given here)) [MCh-2, PDB 2M2R] | not active | not active; also recorded: not trypsin inhibitors | not active | not active
2 | GCAGKSCNILGSDPCDAGCFCLPVGIVAGVCV (disulfide (positions not given here)) [MCh-1, PDB 2M2Q] | not active | not active; also recorded: not trypsin inhibitors | not active | not active

— PMC3792974, “Novel Inhibitor Cystine Knot Peptides from Momordica charantia” (PLoS ONE, 2013)
